# Experimental data taken from ChEMBL document CHEMBL3046124, “QSAR for Binding Affinity of Substituted Dibenzoylhydrazines to Intact Sf-9 Cells” (J Pestic Sci, 2005).
# Molecular target: T1, Ecdysone receptor (Spodoptera frugiperda, UniProt Q8MWR1+Q8MWR2)
# T1 sequence (Q8MWR2 whole entry): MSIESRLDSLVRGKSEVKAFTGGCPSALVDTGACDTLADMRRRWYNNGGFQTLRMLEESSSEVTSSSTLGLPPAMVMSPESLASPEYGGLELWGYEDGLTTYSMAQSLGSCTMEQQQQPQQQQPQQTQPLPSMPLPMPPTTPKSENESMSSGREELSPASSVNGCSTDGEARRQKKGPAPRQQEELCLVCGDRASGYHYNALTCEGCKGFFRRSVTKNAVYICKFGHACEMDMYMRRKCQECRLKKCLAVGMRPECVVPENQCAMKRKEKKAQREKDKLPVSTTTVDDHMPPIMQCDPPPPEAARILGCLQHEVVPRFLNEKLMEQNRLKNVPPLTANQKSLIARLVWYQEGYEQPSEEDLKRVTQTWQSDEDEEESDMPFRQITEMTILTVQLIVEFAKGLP
# T1 sequence (Q8MWR1 whole entry): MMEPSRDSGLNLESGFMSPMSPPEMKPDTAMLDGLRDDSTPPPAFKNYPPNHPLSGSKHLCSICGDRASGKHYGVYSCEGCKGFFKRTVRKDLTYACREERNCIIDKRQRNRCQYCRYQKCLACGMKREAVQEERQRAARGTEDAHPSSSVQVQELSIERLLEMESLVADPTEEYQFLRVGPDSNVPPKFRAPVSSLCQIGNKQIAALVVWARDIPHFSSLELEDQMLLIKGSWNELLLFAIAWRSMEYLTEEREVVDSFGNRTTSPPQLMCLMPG
# Test: Displacement of [3H]PonA from ecdysone receptor in Spodoptera frugiperda (fall armyworm) Sf-9 cells after 30 min by liquid scintillation counting
# Format: cell-based
row,Compound,IC50
1,CC(C)(C)N(NC(=O)c1ccc(S(C)(=O)=O)cc1)C(=O)c1ccccc1Cl,2880 nM
2,CC(C)(C)N(NC(=O)c1ccc(Br)cc1)C(=O)c1ccccc1Cl,20.4 nM
3,CC(C)(C)N(NC(=O)c1ccc(C(F)(F)F)cc1)C(=O)c1ccccc1Cl,110 nM
4,CC(C)(C)N(NC(=O)c1ccc(Cl)cc1)C(=O)c1ccccc1Cl,129 nM
5,CC(C)(C)N(NC(=O)c1ccccc1)C(=O)c1ccccc1Cl,83.2 nM
6,CC(C)(C)c1ccc(C(=O)NN(C(=O)c2ccccc2Cl)C(C)(C)C)cc1,21.9 nM
7,Cc1ccc(C(=O)NN(C(=O)c2ccccc2Cl)C(C)(C)C)cc1,52.5 nM
8,CC(C)(C)N(NC(=O)c1ccc(I)cc1)C(=O)c1ccccc1Cl,50.1 nM
9,CCCCc1ccc(C(=O)NN(C(=O)c2ccccc2Cl)C(C)(C)C)cc1,5.37 nM
10,COc1ccc(C(=O)NN(C(=O)c2ccccc2Cl)C(C)(C)C)cc1,61.7 nM
11,CC(=O)c1ccc(C(=O)NN(C(=O)c2ccccc2Cl)C(C)(C)C)cc1,427 nM
12,CC(C)c1ccc(C(=O)NN(C(=O)c2ccccc2Cl)C(C)(C)C)cc1,15.1 nM
13,CCc1ccc(C(=O)NN(C(=O)c2ccccc2Cl)C(C)(C)C)cc1,12.9 nM
14,CC(C)(C)N(NC(=O)c1ccc(C#N)cc1)C(=O)c1ccccc1Cl,1820 nM
15,CCCc1ccc(C(=O)NN(C(=O)c2ccccc2Cl)C(C)(C)C)cc1,22.9 nM
16,CC(C)(C)N(NC(=O)c1ccc(-c2ccccc2)cc1)C(=O)c1ccccc1Cl,6760 nM
17,CC(C)(C)N(NC(=O)c1ccc(F)cc1)C(=O)c1ccccc1Cl,51.3 nM
18,CC(C)(C)N(NC(=O)c1ccc([N+](=O)[O-])cc1)C(=O)c1ccccc1Cl,380 nM
